Counter-ions that a name gives are not always drawn. ± gives the standard deviation of the averaged measurements.
Tested on: HeLa
Test: cell viability (CellTiter-Glo) relative to median of lowest-dilution wells of all drugs (fraction); higher = more viable cells
Experimental: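 HeLa control and CRISPR DDX11 knockout cells were seeded in 384-well plates and incubated for 72 h with each of 64 […] drugs at six concentrations. Viability was read with CellTiter-Glo and normalised to the median of the lowest (6th) dilution wells of all drugs. Two biological replicates (BR1, BR2) are averaged; the concentration unit is not stated.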

[1] = drug concentration (unit not stated): 0.04, genotype: DDX11 knockout
[2] = drug concentration (unit not stated): 0.04, genotype: control (DDX11 wild type)
[3] = drug concentration (unit not stated): 0.12, genotype: DDX11 knockout
[4] = drug concentration (unit not stated): 0.12, genotype: control (DDX11 wild type)
[5] = drug concentration (unit not stated): 0.37, genotype: DDX11 knockout
[6] = drug concentration (unit not stated): 0.37, genotype: control (DDX11 wild type)
[7] = drug concentration (unit not stated): 1.11, genotype: DDX11 knockout
[8] = drug concentration (unit not stated): 1.11, genotype: control (DDX11 wild type)
[9] = drug concentration (unit not stated): 3.33, genotype: DDX11 knockout
[10] = drug concentration (unit not stated): 3.33, genotype: control (DDX11 wild type)
[11] = drug concentration (unit not stated): 10, genotype: DDX11 knockout
[12] = drug concentration (unit not stated): 10, genotype: control (DDX11 wild type)
[13] = drug concentration (unit not stated): 0.01, genotype: DDX11 knockout
[14] = drug concentration (unit not stated): 0.01, genotype: control (DDX11 wild type)
[15] = drug concentration (unit not stated): 30, genotype: DDX11 knockout
[16] = drug concentration (unit not stated): 30, genotype: control (DDX11 wild type)

Compound	cell viability [1]	cell viability [2]	cell viability [3]	cell viability [4]	cell viability [5]	cell viability [6]	cell viability [7]	cell viability [8]	cell viability [9]	cell viability [10]	cell viability [11]	cell viability [12]	cell viability [13]	cell viability [14]	cell viability [15]	cell viability [16]
C[C@@H](Nc1cc(F)cc(F)c1)c1cc(C(=O)N(C)C)cc2c(=O)cc(N3CCOCC3)oc12 [AZD8186]	0.961 ± 0.075	1.01 ± 0.036	0.946 ± 0.098	1.01 ± 0.027	0.887 ± 0.049	0.952 ± 0.076	0.847 ± 0.075	0.92 ± 0.12	0.764 ± 0.082	0.887 ± 0.17	0.654 ± 0.13	0.908 ± 0.19	–	–	–	–
O=C(c1cc(Cc2n[nH]c(=O)c3ccccc23)ccc1F)N1CCN(C(=O)C2CC2)CC1 [Olaparib]	1.072 ± 0.0052	1.02 ± 0.032	1.02 ± 0.024	1.04 ± 0.043	0.953 ± 0.063	0.959 ± 0.036	0.954 ± 0.037	0.967 ± 0.035	0.796 ± 0.076	0.987 ± 0.011	0.677 ± 0.083	1.01 ± 0.066	–	–	–	–
C[C@@H]1COCCN1c1cc(C2([S@](C)(=N)=O)CC2)nc(-c2cc[nH]c3nccc2-3)n1 [AZD6738]	1.04 ± 0.026	1.04 ± 0.022	1.03 ± 0.046	1.03 ± 0.019	0.992 ± 0.045	0.971 ± 0.022	0.862 ± 0.0099	0.957 ± 0.13	0.648 ± 0.036	0.913 ± 0.29	0.366 ± 0.094	0.55 ± 0.24	–	–	–	–
Nc1cc(C(F)(F)F)c(-c2cc(N3CCOCC3)nc(N3CCOCC3)n2)cn1 [Buparlisib (BKM-120)]	1.01 ± 0.023	1.01 ± 0.039	0.963 ± 0.035	0.999 ± 0.046	0.881 ± 0.18	0.92 ± 0.2	0.625 ± 0.13	0.772 ± 0.3	0.248 ± 0.08	0.247 ± 0.11	0.045 ± 0.0024	0.0382 ± 0.001	–	–	–	–
CC(=O)O[C@H]1C(=O)[C@@]2(C)[C@H]([C@H](OC(=O)c3ccccc3)[C@]3(O)C[C@H](OC(=O)[C@H](O)[C@@H](NC(=O)c4ccccc4)c4ccccc4)C(C)=C1C3(C)C)[C@]1(OC(C)=O)CO[C@@H]1C[C@@H]2O [Paclitaxel (Taxol)]	0.26 ± 0.017	0.379 ± 0.11	0.203 ± 0.0074	0.148 ± 0.021	0.2001 ± 0.00037	0.169 ± 0.016	0.197 ± 0.031	0.2 ± 0.042	0.179 ± 0.033	0.139 ± 0.0065	–	–	0.44 ± 0.12	0.515 ± 0.11	–	–
CC(=O)c1c(C)c2cnc(Nc3ccc(N4CCNCC4)cn3)nc2n(C2CCCC2)c1=O [Palbociclib]	–	–	1.02 ± 0.084	1.017 ± 0.00052	1.0721 ± 0.001	1.01 ± 0.017	1.009 ± 0.0063	1.02 ± 0.025	1.03 ± 0.054	1.01 ± 0.022	0.9 ± 0.0099	0.986 ± 0.11	–	–	0.658 ± 0.045	0.893 ± 0.26
C=CCn1c(=O)c2cnc(Nc3ccc(N4CCN(C)CC4)cc3)nc2n1-c1cccc(C(C)(C)O)n1 [AZD1775]	0.9297 ± 0.0031	0.962 ± 0.028	0.922 ± 0.021	0.951 ± 0.021	0.85 ± 0.048	0.959 ± 0.025	0.423 ± 0.12	0.615 ± 0.014	0.213 ± 0.0052	0.288 ± 0.11	0.0863 ± 0.058	0.092 ± 0.087	–	–	–	–
COc1ncc(-c2ccc3nccc(-c4ccnnc4)c3c2)cc1NS(=O)(=O)c1ccc(F)cc1F	0.57 ± 0.044	0.661 ± 0.17	0.467 ± 0.073	0.528 ± 0.19	0.33 ± 0.046	0.458 ± 0.18	0.326 ± 0.042	0.416 ± 0.12	0.304 ± 0.04	0.373 ± 0.12	–	–	0.657 ± 0.037	0.774 ± 0.23	–	–
CC(C)(C)Cn1c(N)nc2ccc(-c3[nH]c(C(C)(C)C)nc3-c3ccc(F)cc3)nc21	0.937 ± 0.044	0.991 ± 0.022	0.96 ± 0.11	1.03 ± 0.022	0.942 ± 0.088	0.988 ± 0.15	0.921 ± 0.072	1.02 ± 0.1	0.84 ± 0.03	1.06 ± 0.15	0.737 ± 0.061	1.03 ± 0.25	–	–	–	–
Nc1ccn([C@@H]2O[C@H](CO)[C@@H](O)[C@@H]2O)c(=O)n1 [Cytarabine]	1 ± 0.016	1.02 ± 0.058	0.987 ± 0.12	1.02 ± 0.096	0.728 ± 0.11	0.994 ± 0.21	0.682 ± 0.14	0.907 ± 0.41	–	–	–	–	1.05 ± 0.017	1.02 ± 0.028	–	–
CC(C)C[C@H](NC(=O)[C@H](CCc1ccccc1)NC(=O)CN1CCOCC1)C(=O)N[C@@H](Cc1ccccc1)C(=O)N[C@@H](CC(C)C)C(=O)[C@@]1(C)CO1 [Carfilzomib]	0.512 ± 0.7	1.1 ± 0.07	0.414 ± 0.57	1.02 ± 0.14	0.0394 ± 0.035	0.385 ± 0.37	0.00988 ± 0.0031	0.0166 ± 0.0079	–	–	–	–	0.6 ± 0.63	1.11 ± 0.022	–	–
CN(Cc1cnc2nc(N)nc(N)c2n1)c1ccc(C(=O)N[C@@H](CCC(=O)O)C(=O)O)cc1 [Abitrexate (Methotrexate)]	0.79 ± 0.24	0.723 ± 0.34	0.772 ± 0.21	0.665 ± 0.35	0.725 ± 0.17	0.606 ± 0.33	0.462 ± 0.08	0.58 ± 0.31	–	–	–	–	0.864 ± 0.26	0.969 ± 0.64	–	–
N.N.[Cl][Pt][Cl] [Cisplatin]	0.76437 ± 0.00042	0.986 ± 0.093	0.541 ± 0.11	0.885 ± 0.29	0.233 ± 0.12	0.464 ± 0.12	0.0768 ± 0.043	0.112 ± 0.0088	0.0231 ± 0.0084	0.024 ± 0.0028	0.0148 ± 0.0023	0.0159 ± 0.0015	–	–	–	–
O=c1cc(N2CCOCC2)oc2c(-c3cccc4c3sc3ccccc34)cccc12 [NU7441]	0.982 ± 0.06	0.9779 ± 0.0026	0.953 ± 0.032	0.963 ± 0.011	1.02 ± 0.073	0.9893 ± 0.0052	0.972 ± 0.013	1.019 ± 0.0044	0.918 ± 0.066	0.992 ± 0.14	0.834 ± 0.15	0.935 ± 0.37	–	–	–	–
O=c1cc(-c2cccc3c2Sc2ccccc2S3)oc(N2CCOCC2)c1	–	–	1.06 ± 0.039	0.988 ± 0.017	1.03 ± 0.027	1.01 ± 0.065	0.9944 ± 0.005	0.9715 ± 0.0052	0.963 ± 0.023	0.998 ± 0.064	0.843 ± 0.048	0.951 ± 0.17	–	–	0.633 ± 0.053	0.854 ± 0.38
CN1CC[C@H](c2c(O)cc(O)c3c(=O)cc(-c4ccccc4Cl)oc23)[C@H](O)C1 [Alvocidib (Flavopiridol)]	1.11 ± 0.067	1.09 ± 0.031	0.972 ± 0.013	1.16 ± 0.29	0.106 ± 0.023	0.172 ± 0.022	0.163 ± 0.036	0.244 ± 0.086	0.0793 ± 0.033	0.11 ± 0.0096	–	–	1.03 ± 0.079	1.02 ± 0.067	–	–
O=C1c2c(O)ccc(O)c2C(=O)c2c(NCCNCCO)ccc(NCCNCCO)c21 [Mitoxantrone Hydrochloride]	0.556 ± 0.33	0.88 ± 0.18	0.292 ± 0.31	0.858 ± 0.57	0.124 ± 0.13	0.583 ± 0.73	0.0246 ± 0.0088	0.312 ± 0.42	–	–	–	–	0.834 ± 0.17	0.952 ± 0.011	–	–
C[C@@H]1COCCN1c1cc(-c2ccnn2C)c2ccnc(-c3ccn[nH]3)c2n1	1.03 ± 0.056	1.022 ± 0.0024	0.981 ± 0.083	1.02 ± 0.077	0.864 ± 0.021	0.959 ± 0.29	0.517 ± 0.036	0.696 ± 0.19	0.313 ± 0.045	0.398 ± 0.16	0.19 ± 0.086	0.227 ± 0.096	–	–	–	–
CC[C@@]1(O)C(=O)OCc2c1cc1n(c2=O)Cc2cc3c(CN(C)C)c(O)ccc3nc2-1 [Topotecan HCl]	0.519 ± 0.38	0.709 ± 0.57	0.206 ± 0.19	0.228 ± 0.21	0.0639 ± 0.033	0.0738 ± 0.043	0.0268 ± 0.0046	0.0567 ± 0.046	0.0244 ± 0.0069	0.0265 ± 0.01	–	–	0.74 ± 0.27	0.86 ± 0.14	–	–
O=c1[nH]c(=O)n(C2CCCO2)cc1F (configuration not stated) [Ftorafur (Tegafur)]	0.985 ± 0.063	0.953 ± 0.027	1 ± 0.057	1.01 ± 0.014	1.02 ± 0.016	1.01 ± 0.026	1 ± 0.016	1.01 ± 0.028	1.013 ± 0.0085	1.03 ± 0.014	–	–	0.991 ± 0.11	0.978 ± 0.05	–	–

From the supplement of paper PMC8092582
